Values quoted from earlier work in US9555150B2, “Absorbent articles comprising an organic zinc salt and an anti-bacterial agent or alkali metal chloride or alkaline earth metal chloride” (SCA HYGIENE PRODUCTS AB, priority 2006, dated 2017).

conditions: measured in water at 25° C

Row | Compound | pK
1 | CC(=O)O [Acetic acid, acetic acid] | 4.75
2 | O=C(O)c1ccccc1 [benzoic acid] | 4.19
3 | C/C=C/C=C/C(=O)O [sorbic acid] | 4.76
